SMILES strings stand for the structures.

The term Ki denotes a dissociation constant, usually derived from enzyme kinetics or from competition with a known ligand. A lower Ki goes with higher affinity.

This assay deals with T1, VMAT-2 (Rattus norvegicus, UniProt Q01827).
T1 construct: Novascreen Biosciences Corporation (contract assay provider) protocol Cat. No. 100-0751
Kind of assay: VMAT-2 binding affinity measurement (Novascreen protocol Cat. No. 100-0751). Conditions: for Ki: VMAT-2 binding affinity; for binding affinity for VMAT-2 (in words): relative to a DTBZ control. The procedure: VMAT-2 binding affinity measurements were carried out by Novascreen Biosciences Corporation (Hanover, Md., USA) using protocol Cat. No. 100-0751. Novascreen, Inc. is a commercial provider of biological assays for the pharmaceutical industry.

T1 sequence (Q01827 whole entry): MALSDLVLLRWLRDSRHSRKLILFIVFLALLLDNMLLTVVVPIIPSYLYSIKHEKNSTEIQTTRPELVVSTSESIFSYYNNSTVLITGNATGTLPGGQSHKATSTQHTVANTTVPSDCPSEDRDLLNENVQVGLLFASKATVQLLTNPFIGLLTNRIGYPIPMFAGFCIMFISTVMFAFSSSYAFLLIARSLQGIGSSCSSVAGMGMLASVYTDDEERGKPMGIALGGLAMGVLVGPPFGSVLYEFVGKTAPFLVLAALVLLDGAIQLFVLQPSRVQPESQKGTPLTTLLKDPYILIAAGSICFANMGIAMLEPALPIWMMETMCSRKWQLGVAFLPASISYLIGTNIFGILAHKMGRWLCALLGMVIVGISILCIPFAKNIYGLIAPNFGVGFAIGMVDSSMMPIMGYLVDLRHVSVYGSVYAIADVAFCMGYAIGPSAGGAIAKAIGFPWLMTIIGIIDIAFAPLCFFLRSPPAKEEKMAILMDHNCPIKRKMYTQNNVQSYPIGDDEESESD

For `COc1cc2c(cc1OC)[C@H]1C[C@@H](OCCF)[C@H](CC(C)C)CN1CC2` [Compound 22], the Ki turned out to be 3.2 nM and the “binding affinity for VMAT-2 (in words)” value is recorded as “very high binding affinity”.

Take `COc1cc2c(cc1OC)[C@H]1C[C@@H](OCCCF)[C@H](CC(C)C)CN1CC2` [Compound 23]: the Ki worked out at 6.4 nM and the “binding affinity for VMAT-2 (in words)” value is “very high binding affinity”.
